Laboratory results from ChEMBL document CHEMBL4007488, “Amphiphilic Indole Derivatives as Antimycobacterial Agents: Structure-Activity Relationships and Membrane Targeting Properties” (J Med Chem, 2017).
Values after ≈ are worked out from the molar mass of the structure shown. Active and inactive are the calls of the source. The calls are words filed in the database; no cut-off is given here.

Experiments:
[1] = test system: Mycobacterium tuberculosis variant bovis; assay: Antimycobacterial activity against Mycobacterium bovis BCG ATCC 35734 after 5 days by broth dilution method; format: functional; conditions: ATCC 35734, 120 h
[2] = test system: Mycobacterium tuberculosis variant bovis; assay: Antimycobacterial activity against Mycobacterium bovis BCG ATCC 35734 using middlebrook 7H9 broth media after 5 days by broth dilution method; format: functional; conditions: ATCC 35734, 120 h
[3] = test system: Mycobacterium tuberculosis variant bovis; assay: Antimycobacterial activity against Mycobacterium bovis BCG ATCC 35734 assessed as growth inhibition at 10 uM after 5 days relative to control; format: functional; conditions: ATCC 35734, 120 h, read-out: GI
[4] = test system: Mycobacterium tuberculosis variant bovis; assay: Antimycobacterial activity against Mycobacterium bovis BCG ATCC 35734 using middlebrook 7H9 broth media supplemented with 10 % fetal bovine serum after 5 days by broth dilution method; format: functional; conditions: ATCC 35734, 120 h
[5] = test system: Mycobacterium tuberculosis variant bovis; assay: Antimycobacterial activity against Mycobacterium bovis BCG ATCC 35734 in presence of menaquinone; format: functional
[6] = test system: Mycobacterium tuberculosis variant bovis; assay: Antimycobacterial activity against Mycobacterium bovis BCG ATCC 35734 assessed as membrane depolarization at 12 uM by DiOC2-based fluorescence assay; format: functional; conditions: TDE = time-dependent effect
[7] = test system: Mycobacterium tuberculosis variant bovis; assay: Antimycobacterial activity against Mycobacterium bovis BCG ATCC 35734 assessed as increase in permeabilized cells at 12 uM by propidium iodide-staining based FACS analysis; format: functional, cell-based; conditions: TDE = time-dependent effect
[8] = test system: Mycobacterium tuberculosis variant bovis; assay: Bactericidal activity against Mycobacterium bovis BCG ATCC 35734 assessed as reduction in colony forming units measured on day 4 by time kill assay; format: functional; conditions: ATCC 35734, 96 h, read-out: MBC99.9
[9] = test system: Mycobacterium tuberculosis variant bovis; assay: Induction of cell envelope stress in iniBAC expressing Mycobacterium bovis BCG ATCC 35734 co-expressing RFP assessed as increase in iniBAC promoter gene activity at compound MIC50 after 24 hrs by fluorescence assay relative to control; format: functional, Mycobacterium tuberculosis variant bovis BCG
[10] = test system: Mycobacterium tuberculosis variant bovis; assay: Bactericidal activity against Mycobacterium bovis BCG ATCC 35734 assessed as reduction in colony forming units at 1.6 uM measured daily over 5 days of compound treatment by time kill assay; format: functional
[11] = test system: Mycobacterium tuberculosis variant bovis; assay: Induction of cell envelope stress in clgR-pspA expressing Mycobacterium bovis BCG ATCC 35734 co-expressing RFP assessed as increase in clgR promoter gene activity at compound MIC50 after 24 hrs by fluorescence assay relative to control; format: functional, Mycobacterium tuberculosis variant bovis BCG
[12] = test system: Mycobacterium tuberculosis variant bovis; assay: Bactericidal activity against Mycobacterium bovis BCG ATCC 35734 assessed as 1000 fold kill under low-oxygen tension conditions by time kill assay; format: functional, Mycobacterium tuberculosis variant bovis BCG
[13] = test system: Mycobacterium tuberculosis variant bovis; assay: Antimycobacterial activity against Mycobacterium bovis BCG ATCC 35734 assessed as membrane depolarization at 1.6 uM measured daily over 5 days of compound treatment by DiOC2-based fluorescence assay; format: functional
[14] = test system: Mycobacterium tuberculosis variant bovis; assay: Antimycobacterial activity against Mycobacterium bovis BCG ATCC 35734 assessed as increase in permeabilized cells at 1.6 uM measured daily over 5 days of compound treatment by propidium iodide-staining based FACS analysis; format: functional, cell-based
[15] = test system: Mycobacterium tuberculosis variant bovis; assay: Antimycobacterial activity against Mycobacterium bovis BCG ATCC 35734 up to 4 times MIC90 after 8 weeks; format: functional
[16] = test system: Mycobacterium tuberculosis variant bovis; assay: Antimycobacterial activity against Mycobacterium bovis BCG ATCC 35734 assessed as membrane depolarization at 200 uM by DiOC2-based fluorescence assay relative to control; format: functional, Mycobacterium tuberculosis variant bovis BCG

With `CCCCCCCCn1cc(CN2CCC3(CC2)OCCO3)c2ccc(OC)cc21` the MIC50 [1] was 2 µM (≈ 0.829 µg/mL), the MIC90 [1] was 4 µM (≈ 1.66 µg/mL) and the MIC50 [2] was 2.1 µM (≈ 0.871 µg/mL). The inhibition of growth at 10 µM [3] was 99% and the MIC50 [4] was 2.5 µM (≈ 1.04 µg/mL).

With `CCCCCCCCn1cc(CN2CCCCCC2)c2c(F)cccc21` the Activity [5] was “Active”, the MIC50 [1] was 2 µM (≈ 0.717 µg/mL) and the MIC90 [1] was 6 µM (≈ 2.15 µg/mL). For the same compound, the Activity [6] was “Tde”, the Activity [7] was “Tde” and the MBC [8] was 12 µM (≈ 4.3 µg/mL). For the same compound, the “fold change (FC)” value [9] was 10, the MIC50 [2] was 5 µM (≈ 1.79 µg/mL) and the Activity [10] was “Active”. The “fold change (FC)” value [11] was 5, the inhibition of growth at 10 µM [3] was 99% and the WCC99.9 [12] was 12 to 24 µM. The Activity [13] was “Active”, the MIC50 [4] was 4.5 µM (≈ 1.61 µg/mL) and the Activity [14] was “Active”. For the same compound, the Activity [15] was “Active”.

In the case of `CCCCCCCCn1cc(CN2CCCCCC2)c2ccc(F)cc21`, the MIC50 [1] is reported as 4 µM (≈ 1.43 µg/mL), the MIC90 [1] is reported as 6 µM (≈ 2.15 µg/mL) and the inhibition of growth at 10 µM [3] is reported as 99%.

`CCCCCCCCn1cc(CN2CCC3(CC2)OCCO3)c2c(OC)cccc21` gave an MIC50 [1] of 6 µM (≈ 2.49 µg/mL), an MIC90 [1] of 9 µM (≈ 3.73 µg/mL) and an inhibition of growth at 10 µM [3] of 99%.

In the case of `COc1ccc2c(c1)c(CN1CCCCC1)cn2C/C=C(\C)CCC=C(C)C`, the MIC50 [1] is reported as 9 µM (≈ 3.43 µg/mL), the MIC90 [1] is reported as 12 µM (≈ 4.57 µg/mL) and the inhibition of growth at 10 µM [3] is reported as 99%.

Work on `CCCCCCCCn1cc(CN2CCCCCC2)c2cccc(F)c21` yielded an MIC50 [1] of 5 µM (≈ 1.79 µg/mL), an MIC90 [1] of 8 µM (≈ 2.87 µg/mL) and an inhibition of growth at 10 µM [3] of 99%.

`N#CC(C#N)=NNc1cccc(Cl)c1` [CARBONYL CYANIDE M-CHLOROPHENYLHYDRAZONE] was tested, and the Activity [16] was 90%.

`CCCCNC(=O)Cn1cc(CN2CCCCC2)c2cc(F)ccc21` showed an MIC50 [1] of over 50 µM, an MIC90 [1] of over 50 µM and an inhibition of growth at 10 µM [3] of 99%.

Compound `CCCCCCCCn1cc(CN2CCC3(CC2)OCCO3)c2ccc(F)cc21` has an MIC50 [1] of 3 µM (≈ 1.21 µg/mL), an MIC90 [1] of 5 µM (≈ 2.01 µg/mL) and an inhibition of growth at 10 µM [3] of 99%.

Compound `CCCCN(CCCC)Cc1cn(C/C=C(\C)CCC=C(C)C)c2ccc(F)cc12` has an MIC50 [1] of 13 µM (≈ 5.36 µg/mL), an MIC90 [1] of 25.5 µM (≈ 10.5 µg/mL) and an inhibition of growth at 10 µM [3] of 99%.

With `CC(C)=CCC/C(C)=C/Cn1cc(CN(C)C)c2cc(F)ccc21` the MIC50 [1] was 14.5 µM (≈ 4.76 µg/mL), the MIC90 [1] was 25 µM (≈ 8.21 µg/mL) and the inhibition of growth at 10 µM [3] was 99%.

Compound `CCCCCCCCn1cc(CN2CCCCC2)c2c(OC)cccc21` has an MIC50 [1] of 16 µM (≈ 5.7 µg/mL), an MIC90 [1] of 35 µM (≈ 12.5 µg/mL) and an inhibition of growth at 10 µM [3] of 99%.

`CCCCCCCCn1cc(CNC23CC4CC(CC(C4)C2)C3)c2cc(OC)ccc21` gave an MIC50 [1] of 3 µM (≈ 1.27 µg/mL), an MIC90 [1] of 5 µM (≈ 2.11 µg/mL) and an inhibition of growth at 10 µM [3] of 99%.

`CCCCCCCCn1cc(CN(CCC)CCC)c2cc(F)ccc21` was tested, and the MIC50 [1] was 11 µM (≈ 3.97 µg/mL), the MIC90 [1] was 35 µM (≈ 12.6 µg/mL) and the inhibition of growth at 10 µM [3] was 99%.

`CC(C)=CCC/C(C)=C/Cn1cc(CNC2CCCC2)c2cc(F)ccc21` showed an MIC50 [1] of 8 µM (≈ 2.95 µg/mL), an MIC90 [1] of 14 µM (≈ 5.16 µg/mL) and an inhibition of growth at 10 µM [3] of 99%.

`Fc1ccc2c(c1)c(CN1CCCCC1)cn2CCC1CCCCC1` showed an MIC50 [1] of 17 µM (≈ 5.82 µg/mL), an MIC90 [1] of 27 µM (≈ 9.25 µg/mL) and an inhibition of growth at 10 µM [3] of 99%.

Compound `CCCCCCCCn1cc(CN2CCC(C)CC2)c2cccc(OC)c21` has an MIC50 [1] of 4 µM (≈ 1.48 µg/mL), an MIC90 [1] of 8 µM (≈ 2.96 µg/mL) and an inhibition of growth at 10 µM [3] of 99%.

`CCn1cc(CN2CCCCCC2)c2c(F)cccc21` was tested, and the MIC50 [1] was over 50 µM, the MIC90 [1] was over 50 µM and the inhibition of growth at 10 µM [3] was 99%.

With `CCCCCCCCn1cc(CN2CCC3(CC2)OCCO3)c2cccc(OC)c21` the MIC50 [1] was 28 µM (≈ 11.6 µg/mL), the MIC90 [1] was 42 µM (≈ 17.4 µg/mL) and the inhibition of growth at 10 µM [3] was 99%.

`CCCCCCCCn1cc(CN2CCC(C)CC2)c2c(OC)cccc21` showed an MIC50 [1] of 10 µM (≈ 3.71 µg/mL), an MIC90 [1] of 18 µM (≈ 6.67 µg/mL) and an inhibition of growth at 10 µM [3] of 99%.

In the case of `CCCCCCCCn1cc(C(=O)N2CCCCCC2)c2cc(F)ccc21`, the MIC50 [1] is reported as over 50 µM, the MIC90 [1] is reported as over 50 µM and the inhibition of growth at 10 µM [3] is reported as 99%.

For `CCCCCCCCn1cc(CN(C)C)c2cc(F)ccc21`, the MIC50 [1] was 14 µM (≈ 4.26 µg/mL), the MIC90 [1] was 20 µM (≈ 6.09 µg/mL) and the inhibition of growth at 10 µM [3] was 99%.

For `CCCCCCCCn1cc(CNC23CC4CC(CC(C4)C2)C3)c2cccc(F)c21`, the MIC50 [1] was 3 µM (≈ 1.23 µg/mL), the MIC90 [1] was 5 µM (≈ 2.05 µg/mL) and the inhibition of growth at 10 µM [3] was 99%.

`CCCCCCCCn1cc(CN(CCCC)CCCC)c2cc(F)ccc21` gave an MIC50 [1] of 11 µM (≈ 4.27 µg/mL), an MIC90 [1] of over 50 µM and an inhibition of growth at 10 µM [3] of 99%.

For `CCCCCCCCn1cc(CN(CC)CCC)c2cc(F)ccc21`, the MIC50 [1] was 7 µM (≈ 2.43 µg/mL), the MIC90 [1] was 39 µM (≈ 13.5 µg/mL) and the inhibition of growth at 10 µM [3] was 99%.

For `CCCCCCn1cc(CN2CCCCCC2)c2c(F)cccc21`, the MIC50 [1] was 8 µM (≈ 2.64 µg/mL), the MIC90 [1] was 13 µM (≈ 4.3 µg/mL) and the inhibition of growth at 10 µM [3] was 99%.

In the case of `CCCCCCCCn1cc(CN2CCCCC2)c2ccccc21`, the MIC50 [1] is reported as 14 µM (≈ 4.57 µg/mL), the MIC90 [1] is reported as 31 µM (≈ 10.1 µg/mL) and the inhibition of growth at 10 µM [3] is reported as 99%.

With `CCCCCCCCn1cc(CN2CCOCC2)c2cc(F)ccc21` the MIC50 [1] was 16 µM (≈ 5.54 µg/mL), the MIC90 [1] was over 50 µM and the inhibition of growth at 10 µM [3] was 99%.

`CCCCCCCCCCn1cc(CN2CCCCCC2)c2c(F)cccc21` was tested, and the MIC50 [1] was 10 µM (≈ 3.87 µg/mL), the MIC90 [1] was 15 µM (≈ 5.8 µg/mL) and the inhibition of growth at 10 µM [3] was 99%.

Compound `CCCN(C)Cc1cn(C/C=C(\C)CCC=C(C)C)c2ccc(F)cc12` has an MIC50 [1] of 13 µM (≈ 4.63 µg/mL), an MIC90 [1] of 28.5 µM (≈ 10.2 µg/mL) and an inhibition of growth at 10 µM [3] of 99%.

With `NNC(=O)c1ccncc1` the Activity [15] was “inactive”.

For `CC(C)=CCC/C(C)=C/Cn1cc(CN2CCS(=O)(=O)CC2)c2cc(F)ccc21`, the MIC50 [1] was over 50 µM, the MIC90 [1] was over 50 µM and the inhibition of growth at 10 µM [3] was 99%.

`CC(C)=CCC/C(C)=C/Cn1cc(CN2CCN(C)CC2)c2cc(F)ccc21` showed an MIC50 [1] of 15 µM (≈ 5.75 µg/mL), an MIC90 [1] of 23 µM (≈ 8.82 µg/mL) and an inhibition of growth at 10 µM [3] of 99%.

In the case of `CCCCCCCCn1cc(CNC(C)C)c2cc(F)ccc21`, the MIC50 [1] is reported as 12 µM (≈ 3.82 µg/mL), the MIC90 [1] is reported as 26 µM (≈ 8.28 µg/mL) and the inhibition of growth at 10 µM [3] is reported as 99%.

With `CCCCCCCCn1cc(CN2CCCCC2)c2cccc(OC)c21` the MIC50 [1] was 8 µM (≈ 2.85 µg/mL), the MIC90 [1] was 11 µM (≈ 3.92 µg/mL) and the inhibition of growth at 10 µM [3] was 99%.
